Assay results from patent publication US10875874B2, “Ginkgolide B derivative and preparation method and use thereof” (Chengdu Baiyu Ginkgolide Pharmaceuticals Co., Ltd., priority 2015, dated 2020).
In brackets after ≈: the same amount, converted by molar mass. Marks after values point to notes of the source that are not given here.

How the values were obtained:
[1] = Weekly body weight of SHR rats; assay type: in vivo, rat
In short: (§1)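 Male and female SHR rats (200-250 g, 8/group) dosed intragastrically once daily for 8 weeks with test compounds at 60 or 120 mg/kg/d or captopril 27 mg/kg; Wistar and SHR controls received distilled water. Body weight and food intake observed during treatment.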

[2] = tested on: spontaneously hypertensive rats (SHR); test: Caudal artery systolic pressure of spontaneously hypertensive rats, single administration; assay type: in vivo, rat; conditions: x ± s, n = 8
In short: (§2)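 SHR rats of both sexes (200–250 g, 8/group) dosed intragastrically with 60 or 120 mg/kg/d, or captopril 27 mg/kg, once daily for 8 weeks; Wistar rats and vehicle SHR served as controls. Tail-cuff systolic pressure taken as the mean of 3 readings, measured before dosing and 30–120 min after the first dose, or 30 min post-dose on days 1–56 for chronic treatment.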

[3] = Weekly food intake of SHR rats; assay type: in vivo, rat
In short: as §1

Water solubility test = conditions: purified water, thermodynamic from solid
Protocol: Measuring method: samples are ground to obtain fine powder, target compounds are quantitatively weighed, the weighed compounds are added into purified water, and the solubility of the compounds is investigated by ultrasonics.

[4] = tested on: spontaneously hypertensive rats (SHR); test: Caudal artery systolic pressure of spontaneously hypertensive rats, 8 weeks of continuous medication; assay type: in vivo, rat; conditions: x ± s, n = 8
In short: as §2

[5] = 60 mg/kg/d intragastric, week 0
[6] = 60 mg/kg/d intragastric, week 1
[7] = 60 mg/kg/d intragastric, week 2
[8] = 60 mg/kg/d intragastric, week 3
[9] = 60 mg/kg/d intragastric, week 4
[10] = 60 mg/kg/d intragastric, week 5
[11] = 60 mg/kg/d intragastric, week 6
[12] = 60 mg/kg/d intragastric, week 7
[13] = 60 mg/kg/d intragastric, week 8
[14] = 120 mg/kg/d intragastric, week 0
[15] = 120 mg/kg/d intragastric, week 1
[16] = 120 mg/kg/d intragastric, week 2
[17] = 120 mg/kg/d intragastric, week 3
[18] = 120 mg/kg/d intragastric, week 4
[19] = 120 mg/kg/d intragastric, week 5
[20] = 120 mg/kg/d intragastric, week 6
[21] = 120 mg/kg/d intragastric, week 7
[22] = 120 mg/kg/d intragastric, week 8

solubility (Water solubility test): 250 µg/mL (≈ 381 µM)
Structure (SMILES): CCCCC(OC(C)=O)c1ccccc1C(=O)O[C@H]1C(=O)O[C@H]2O[C@]34C(=O)OC5C[C@@H](C(C)(C)C)C21[C@@]53[C@@H](O)[C@@H]1OC(=O)[C@@H](C)[C@@]14O (some centres unmarked) [BD]
Body weight [1, 5]: 229.2 g
Body weight [1, 6]: 234.5 g
Body weight [1, 7]: 247.1^▴▴ g
Body weight [1, 8]: 252.2 g
Body weight [1, 9]: 257.2 g
Body weight [1, 10]: 262.4 g
Body weight [1, 11]: 270.4^▴ g
Body weight [1, 12]: 280.2^▴▴ g
Body weight [1, 13]: 290.5^▴▴ g
Body weight [1, 14]: 230.9 g
Body weight [1, 15]: 252.0^▴▴ g
Body weight [1, 16]: 257.5^▴▴ g
Body weight [1, 17]: 263.9^▴▴ g
Body weight [1, 18]: 270.8^▴▴ g
Body weight [1, 19]: 281.2^▴▴ g
Body weight [1, 20]: 291.0^▴▴ g
Body weight [1, 21]: 304.7^▴▴ g
Body weight [1, 22]: 321.7^▴▴ g
Systolic pressure ([2]; 60 mg/kg intragastric single administration, 30 min): 157.74 ± 9.28 mmHg
Systolic pressure ([2]; 60 mg/kg intragastric single administration, 60 min): 152.67 ± 13.52 mmHg
Systolic pressure ([2]; 60 mg/kg intragastric single administration, 90 min): 151.60 ± 12.04 mmHg
Systolic pressure ([2]; 60 mg/kg intragastric single administration, 120 min): 155.68 ± 10.15 mmHg
Systolic pressure ([2]; 60 mg/kg intragastric single administration, before administration): 163.64 ± 14.02 mmHg
Systolic pressure ([2]; 120 mg/kg intragastric single administration, 30 min): 148.47 ± 10.87 mmHg
Systolic pressure ([2]; 120 mg/kg intragastric single administration, 60 min): 151.75 ± 10.68 mmHg
Systolic pressure ([2]; 120 mg/kg intragastric single administration, 90 min): 157.25 ± 14.38 mmHg
Systolic pressure ([2]; 120 mg/kg intragastric single administration, 120 min): 160.49 ± 14.76 mmHg
Systolic pressure ([2]; 120 mg/kg intragastric single administration, before administration): 164.57 ± 13.25 mmHg
Average dairy food intake [3, 5]: 18.7 g/day
Average dairy food intake [3, 6]: 19.0^▴ g/d
Average dairy food intake [3, 7]: 19.4^▴ g/d
Average dairy food intake [3, 8]: 19.8^▴ g/d
Average dairy food intake [3, 9]: 20.0^▴▴ g/d
Average dairy food intake [3, 10]: 21.3^▴▴ g/d
Average dairy food intake [3, 11]: 22.6^▴▴ g/d
Average dairy food intake [3, 12]: 24.3^▴▴ g/d
Average dairy food intake [3, 13]: 25.0^▴▴ g/d
Average dairy food intake [3, 14]: 18.3 g/day
Average dairy food intake [3, 15]: 20.1^▴ g/d
Average dairy food intake [3, 16]: 20.6^▴▴ g/d
Average dairy food intake [3, 17]: 21.0^▴▴ g/d
Average dairy food intake [3, 18]: 21.5^▴▴ g/d
Average dairy food intake [3, 19]: 22.8^▴▴ g/d
Average dairy food intake [3, 20]: 23.9^▴▴ g/d
Average dairy food intake [3, 21]: 25.4^▴▴ g/d
Average dairy food intake [3, 22]: 26.9^▴▴ g/d
Systolic pressure ([4]; 60 mg/kg/d intragastric continuous, 1 d, 30 min after administration): 156.20 ± 13.41 mmHg
Systolic pressure ([4]; 60 mg/kg/d intragastric continuous, 7 d, 30 min after administration): 152.95 ± 11.03 mmHg
Systolic pressure ([4]; 60 mg/kg/d intragastric continuous, 13 d, 30 min after administration): 155.74 ± 15.25 mmHg
Systolic pressure ([4]; 60 mg/kg/d intragastric continuous, 19 d, 30 min after administration): 153.01 ± 14.04 mmHg
Systolic pressure ([4]; 60 mg/kg/d intragastric continuous, 25 d, 30 min after administration): 152.30 ± 10.45 mmHg
Systolic pressure ([4]; 60 mg/kg/d intragastric continuous, 35 d, 30 min after administration): 157.03 ± 14.08 mmHg
Systolic pressure ([4]; 60 mg/kg/d intragastric continuous, 49 d, 30 min after administration): 153.96 ± 14.74 mmHg
Systolic pressure ([4]; 60 mg/kg/d intragastric continuous, 56 d, 30 min after administration): 154.57 ± 12.48 mmHg
Systolic pressure ([4]; 60 mg/kg/d intragastric continuous, before administration): 163.64 ± 14.02 mmHg
Systolic pressure ([4]; 120 mg/kg/d intragastric continuous, 1 d, 30 min after administration): 150.49 ± 15.34 mmHg
Systolic pressure ([4]; 120 mg/kg/d intragastric continuous, 7 d, 30 min after administration): 152.64 ± 11.45 mmHg
Systolic pressure ([4]; 120 mg/kg/d intragastric continuous, 13 d, 30 min after administration): 147.33 ± 13.42 mmHg
Systolic pressure ([4]; 120 mg/kg/d intragastric continuous, 19 d, 30 min after administration): 145.49 ± 12.98 mmHg
Systolic pressure ([4]; 120 mg/kg/d intragastric continuous, 25 d, 30 min after administration): 147.66 ± 14.02 mmHg
Systolic pressure ([4]; 120 mg/kg/d intragastric continuous, 35 d, 30 min after administration): 145.61 ± 9.47 mmHg
Systolic pressure ([4]; 120 mg/kg/d intragastric continuous, 49 d, 30 min after administration): 148.62 ± 12.04 mmHg
Systolic pressure ([4]; 120 mg/kg/d intragastric continuous, 56 d, 30 min after administration): 142.15 ± 13.14 mmHg
Systolic pressure ([4]; 120 mg/kg/d intragastric continuous, before administration): 164.57 ± 13.25 mmHg
